The text below walks through data of US8426446B2, “Acrylamide derivative and use thereof in manufacture of medicament” (Beijing Shiqiao Biopharm Co. Ltd., priority 2009, dated 2013).

The structures appear in SMILES notation.

The test system of the assay is Human Leukemia Cell K562. Put plainly: Inhibitory effects on Human Leukemia Cell K562 (MTT). The following applies: Homo sapiens, K562 cells, 72 h~120 h. Format: cell-based. As for the experimental part:
K562 cells were seeded in RPMI1640 cell culture solution containing 10% of fetal calf serum (supplemented with 100 ku/L of penicillin and streptomycin each). Culture dish was placed in the cell incubator under 5% of CO2 at 37° C. The culture solution was centrifuged and replaced every 2-3 days to passage and collect cells.
Cells in logarithmic growth phase were formulated into the cell suspensions at the required concentration with RPMI1640 culture solution containing 10% fetal calf serum. The resulting mixture was added to 96-wells cell culture plate at 3,000 cells per well (100 μl); after 12 hours of culture, to each well was added different amount of stock solution. The final concentrations of the samples are 100 μg/ml, 10 μg/ml, 1 μg/ml, […], and 0.01 μg/ml respectively in triplicate. After 72 h˜120 h, supernatant was discarded. To each well was added […] fresh serum-free culture solution containing 5 mg/ml blue tetrazolium (MTT). After culturing for 4 hours at 37° C., the mixture was centrifuged at 3000 rpm/min and the supernatant was discarded. Formazan was dissolved with 200 μl DMSO. After vortex oscillation for 1 min, absorbance value (OD-value) was measured on microplate reader at the wavelength of 570/450 nm. Inhibition ratio=(control group OD-value−drug group OD-value)/control group OD-value×100%.
The term IC50 denotes the point on the concentration scale where inhibition reaches its midpoint. A high value points to weaker potency. Take `Cc1ccc(C(=O)Nc2ccc(Cl)c(C(F)(F)F)c2)cc1NC(=O)/C=C/c1cccnc1` [compound 58, N-(4-chloro-3-(trifluoromethyl)phenyl)-4-methyl-3-(3-(pyridin-3-yl)acrylamido)benzamide]: the IC50 is under 1 nM.

`Cc1ccc(C(=O)Nc2ccc(F)c(C(F)(F)F)c2)cc1NC(=O)/C=C/c1cccnc1` [compound 60, N-(4-fluoro-3-(trifluoromethyl)phenyl)-4-methyl-3-(3-(pyridin-3-yl)acrylamido)benzamide] yielded an IC50 of under 1 nM.

`Cc1ccc(NC(=O)c2ccc(C)c(NC(=O)/C=C/c3cccnc3)c2)cc1F` [compound 61, N-(3-fluoro-4-methylphenyl)-4-methyl-3-(3-(pyridin-3-yl)acrylamido)benzamide] registered an IC50 of under 1 nM.

Regarding `Cc1ccc(C(=O)Nc2ccc(C)c(C(F)(F)F)c2)cc1NC(=O)/C=C/c1cccnc1` [compound 62, N-(4-methyl-3-(trifluoromethyl)phenyl)-4-methyl-3-(3-(pyridin-3-yl)acrylamido)benzamide], the IC50 is under 1 nM.

For `Cc1ccc(NC(=O)c2ccc(C)c(NC(=O)/C=C/c3cccnc3)c2)cc1` [compound 66, N-(4-(methyl)phenyl)-4-methyl-3-(3-(pyridin-3-yl)acrylamido)benzamide], the IC50 lay within 2 to 20 nM.

In turn, `Cc1ccc(C(=O)Nc2c(C)cccc2Cl)cc1NC(=O)/C=C/c1cccnc1` [compound 67, N-(2-chloro-6-methylphenyl)-4-methyl-3-(3-(pyridin-3-yl)acrylamido)benzamide] returned an IC50 of 2 to 20 nM.

In turn, `Cc1ccc(C(=O)Nc2ccc(N3CCOCC3)c(C(F)(F)F)c2)cc1NC(=O)/C=C/c1cccnc1` [compound 69, N-(4-(morpholin-4-yl)-3-(trifluoromethyl)phenyl)-4-methyl-3-(3-(pyridin-3-yl)acrylamido)benzamide] registered an IC50 of under 1 nM.

Regarding `Cc1ccc(C(=O)Nc2ccc(N3CCN(C)CC3)c(C(F)(F)F)c2)cc1NC(=O)/C=C/c1cccnc1` [compound 71, N-(4-(4-methylpiperazin-1-yl)-3-(trifluoromethyl)phenyl)-4-methyl-3-(3-(pyridin-3-yl)acrylamido)benzamide], the IC50 was under 1 nM.

Regarding `CCN1CCN(c2ccc(NC(=O)c3ccc(C)c(NC(=O)/C=C/c4cccnc4)c3)cc2C(F)(F)F)CC1` [compound 74, N-(4-(4-ethylpiperazin-1-yl)-3-(trifluoromethyl)phenyl)-4-methyl-3-(3-(pyridin-3-yl)acrylamido)benzamide], the IC50 lay within 2 to 20 nM.

Compound `Cc1ccc(C(=O)Nc2ccc(C)c(C(F)(F)F)c2)cc1NC(=O)/C=C/c1cncnc1` [compound 77, N-(4-methyl-3-(trifluoromethyl)phenyl)-4-methyl-3-(3-(pyrimidin-5-yl)acrylamido)benzamide] registered an IC50 of under 1 nM.

For the compound `Cc1ccc(C(=O)Nc2ccc(N3CCOCC3)c(C(F)(F)F)c2)cc1NC(=O)/C=C/c1cncnc1` [compound 78, N-(4-(morpholin-4-yl)-3-(trifluoromethyl)phenyl)-4-methyl-3-(3-(pyrimidin-5-yl)acrylamido)benzamide], the IC50 was under 1 nM.

`Cc1ccc(C(=O)Nc2ccc(Cl)c(C(F)(F)F)c2)cc1NC(=O)/C=C/c1cncnc1` [compound 79, N-(4-chloro-3-(trifluoromethyl)phenyl)-4-methyl-3-(3-(pyrimidin-5-yl)acrylamido)benzamide]: the IC50 fell in the range of 2 to 20 nM.

In the case of `Cc1ccc(NC(=O)c2ccc(C)c(NC(=O)/C=C/c3cncnc3)c2)cc1F` [compound 80, N-(3-fluoro-4-methylphenyl)-4-methyl-3-(3-(pyrimidin-5-yl)acrylamido)benzamide], the IC50 fell in the range of 2 to 20 nM.

With `Cc1ccc(C(=O)Nc2ccc(F)c(Cl)c2)cc1NC(=O)/C=C/c1cncnc1` [compound 81, N-(3-chloro-4-fluorophenyl)-4-methyl-3-(3-(pyrimidin-5-yl)acrylamido)benzamide], the IC50 was under 20 nM.

In the case of `Cc1ccc(C(=O)Nc2c(C)cccc2Cl)cc1NC(=O)/C=C/c1cncnc1` [compound 82, N-(2-chloro-6-methylphenyl)-4-methyl-3-(3-(pyrimidin-5-yl)acrylamido)benzamide], the IC50 is under 20 nM.

For `Cc1cn(-c2cc(NC(=O)c3ccc(C)c(NC(=O)/C=C/c4cncnc4)c3)cc(C(F)(F)F)c2)cn1` [compound 90, N-(3-(4-methyl-1H-imidazol-1-yl)-5-(trifluoromethyl)phenyl)-4-methyl-3-(3-(pyrimidin-5-yl)acrylamido)benzamide], the IC50 was under 1 nM.

On to `Cc1ccc(NC(=O)Nc2ccc(F)c(Cl)c2)cc1NC(=O)/C=C/c1cccnc1` [compound 102, N-(5-(3-(3-chloro-4-fluorophenyl)ureido)-2-methylphenyl)-3-(pyridin-3-yl)acrylamide], for which the IC50 lay within 10 to 20 nM.
